In US4866068A, “Novel HMG-CoA reductase inhibitors” (Merck & Co., Inc., priority 1988, dated 1989):

System: HMG-CoA reductase
Experiment: in vitro HMG-CoA reductase inhibition, relative potency versus compactin
Type: biochemical
Details: compactin (mevastatin) assigned a value of 100; IC50 of test compound compared with that of compactin determined simultaneously
Procedure: The intrinsic HMG-CoA reductase inhibition activity of the claimed compounds is measured in the in vitro protocol published in J. Med. Chem., 28, p. 347-358 (1985).
For estimation of relative inhibitory potencies, compactin (i.e., mevastatin) was assigned a value of 100 and the IC50 value of the test compound was compared with that of compactin determined simultaneously in the published in vitro protocol.

Row | SMILES | relative potency (intrinsic HMG-CoA reductase inhibitory activity)
1 | C[C@H]1C=C2C=C[C@H](C)[C@H](CC[C@@H]3C[C@@H](O)CC(=O)O3)[C@H]2[C@@H](OC(=O)C(C)(C)Sc2ccncc2)C1 [Example 1, 6R-[2-[8(S)[2-methyl-2-(4-pyridinylthio)propionyloxy]-2(S), 6(R)-dimethyl-1,2,6,7,8,8a(R)-hexahydronaphthyl-1(S)]ethyl]-4(R)-hydroxy-3,4,5,6-tetrahydro-2H-pyran-2-one] | 112
2 | C[C@H]1C=C2C=C[C@H](C)[C@H](CC[C@@H]3C[C@@H](O)CC(=O)O3)[C@H]2[C@@H](OC(=O)C(C)(C)Sc2nc3ccccc3s2)C1 [Example 2] | 100
